Results taken from patent US7501513B2, “Immunosuppressive effects of pteridine derivatives” (4 AZA Bioscience NV, priority 2003, dated 2009).

How the values were obtained:
IL-5 = assay: Inhibition of the release of IL-5; format: cell-based; conditions: at 0.1 μM/l
Method: (§1) 2-amino-4-morpholino-6-(3,4-dimethoxyphenyl)pteridine (a compound known from WO 00/39129) was tested, according to experimental procedures well established in the art, in the inhibition of two cytokines, IL-5 and IL-10, known to be involved in the development of asthma and other forms of severe allergic conditions.

B16BL/6 melanoma cells = assay: Inhibition of the metastasis of melanoma cells in mice; format: in vivo, C57BL/6 mice; conditions: 20 mg/kg intraperitoneously, three times a week for two weeks; control group 80%
Method: C57BL/6 mice were injected with 1.5×10^6 B16BL/6 melanoma cells and were divided into 2 groups. Five days after the injection of the tumor cells, the two groups of animals were administered intraperitoneously, three times a week for two subsequent weeks, either (treated group) 20 mg/kg of 2-amino-4-morpholino-6-(3,4-dimethoxyphenyl)pteridine (a compound known from WO 00/39129) or (control group) the vehicle (5% DMSO in phosphate buffered saline). At the end of the experiment, all surviving tumor-bearing mice were sacrificed and examined in order to assess the absence or presence of the black metastases in inguinal and/or para-aortic lymph nodes (macroscopic metastasis). The findings were confirmed by histology, and the experiment done twice.

IL-10 = assay: Inhibition of the release of IL-10; format: cell-based; conditions: at 0.1 μM/l
Method: as §1

[1] = test system: Peripheral blood mononuclear cells; assay: Mixed lymphocyte reaction (MLR) test; format: cell-based, human; conditions: Homo sapiens, PBMC; Table 1; 50% suppression of the MLR
Method: (§2) Pteridine derivatives were first dissolved (10 mM) in dimethylsulfoxide (hereinafter referred as DMSO) and further diluted in culture medium before use for the following in vitro experiments. The commercially available culture medium consisted of RPMI-1640+10% foetal calf serum (FCS). Some pteridine derivatives described the previous examples were tested in the following lymphocyte activation tests:
(§3) Peripheral blood mononuclear cells (hereinafter referred as PBMC) were isolated from heparinized peripheral blood by density gradient centrifugation over Lymphoprep (Nycomed, Maorstua, Norway). Allogeneic PBMC or Eppstein-Barr Virus-transformed human B cells [commercially available under the trade name RPMI1788 (ATCC name CCL156)] which strongly express B7-1 and B7-2 antigens were used as stimulator cells after irradiation with 30 Gy. MLR was performed in triplicate wells. After 5 days incubation at 37° C., 1 μCi [^3H]-thymidine was added to each cup. After a further 16 hours incubation, cells were harvested and counted in a β-counter. Inhibition of proliferation by a compound (drug) described in some of the previous examples was counted using the formula:
(§4) [formula] wherein cpm is the thymidine count per minute. The MLR assay is regarded by those skilled in the art as an in vitro analogue of the transplant rejection since it is based on the recognition of allogeneic major histocompatibility antigens on the stimulator leukocytes, by responding lymphocytes. Assays for CD3 and CD 28
Pteridine derivatives were first dissolved (10 mM) in dimethylsulfoxide (hereinafter referred as DMSO) and further diluted in culture medium before use for the following in vitro experiments. The commercially available culture medium consisted of RPMI-1640+10% foetal calf serum (FCS). Some pteridine derivatives described in the previous examples (as indicated in table 3 below) were tested in the following mixed lymphocyte reaction (MLR) assay.
as §3, with “CCL156)]which” for “CCL156)] which”
as §4, with “lymphocytes.” for “lymphocytes. Assays for CD3 and CD 28”

[2] = test system: Highly purified T cells stimulated by anti-CD28 mAb; assay: CD28 assay: T-cell proliferation stimulated by anti-CD28 mAb + PMA (BrdU); format: cell-based, human; conditions: Homo sapiens; 50% reduction in T-cell proliferation
Method: as §2
(§5) T cells were purified by removing non-T cells. Briefly, monocytes were removed by cold agglutination. The resulting lymphoid cells were further purified by a cell enrichment immunocolumn [Cellect Human T commercially available from Biotex, Edmonton, Alberta, Canada)] by a process of negative selection. More than 95% of the B cells were removed with this procedure. After depletion, the resulting T cell preparation was highly purified, i.e. these cells could not be activated by phytohaemagglutinin (PHA) or rIL-2 alone at concentrations capable of stimulating RBMC prior to deletion.
(§6) Highly purified T cells (10^6/ml) were stimulated by immobilized anti-CD3 or anti-CD28 monoclonal antibodies (hereinafter referred as mAb) in the presence of phorbol myristate acetate (hereinafter referred as PMA). Anti-CD3 mAb (available from CLB, Amsterdam, Netherlands) were fixed on a 96-microwell plates by incubating the wells with 50 μl of mAb solution (1/800 dilution in culture medium). For anti-CD28 mAb (available from CLB, Amsterdam, Netherlands) 50 μl (1/650 dilution in culture medium) was added directly to the wells. Further, a 20 μl PMA (commercially available from Sigma, St. Louis, Mo., USA) solution (final concentration: 0.5 ng/ml) was added. Subsequently, 20 μl of a pteridine derivative described in the previous examples were added by serial dilution in triplicate wells. Finally 100 μl of the T-cell suspension (10^6/ml) was added. After 48-hour incubation at 37° C. in 5% CO2, 20 μl of a bromo-deuridine (hereinafter referred as BrdU) 100 μM solution (commercially available as Cell Proliferation Elisa from Boehringer-Mannheim Belgium) was added to each well. After a further overnight incubation, T-cell proliferation was measured using a calorimetric immuno-assay for qualification of cell proliferation based on the incorporation of BrdU during DNA synthesis. Optical density (hereinafter referred as OD) was measured by a Behring EL311 plate reader at 450 nm (reference wavelength: 690 nm). Inhibition of proliferation by the pteridine derivative (drug) was counted while using the formula: […]

Peripheral blood T cells = assay: In vivo leukocyte activation and immunosuppression whole blood assay (ConA stimulation, FACScan); parameters: species or system mice; conditions: 30 mg/kg per day i.p.; for TCR+, CD69+ peripheral blood T cells after ConA: 2 hours before ConA, baseline 0.5%; for TCR+, CD69+ peripheral blood T cells after ConA / TCR+, IL-2R+ peripheral blood T cells after ConA: untreated up to 3%; for ConA-stimulated CD71 up-regulation on T cells: baseline 4.8%, untreated 9.3% and 5.5% after 1 and 2 days; for CD134 expression on peripheral blood T cells after ConA: untreated up to 6.6% within 2 days, baseline […]
Method: Inbred mice (e.g. AKR strain), weighting from 20 to 30 g, were stimulated by intraperitoneal injection with mitogens specific for T cells (e.g. Concanavalin A, hereinafter referred as ConA, 500 μg per mouse), B cells or monocytes/macrophages (e.g. LPS 20 μg per mouse). […] Peripheral blood was collected 24, 36, 48, and respectively 72 hours after stimulation for immune fluorescence staining and FACScan analysis.
FACScan analysis proceeded as follows: heparinized whole blood (50 μl) was removed of red blood cells by incubation with a lysing buffer. The remaining leukocytes were double-stained with phycoerythrin-conjugated antibodies specific for T cells (e.g. T cell receptor TCR), B cells (e.g. CD45R/B220 (commercially available from Pharmingen) or monocytes/macrophages (e.g. F4/80) (commer-cially available from Serotec) in combination with FITC-conjugated antibodies against various cell surface markers such as CD69 (early activation molecule), CD25 (IL-2 receptor), CD71 (transferring receptor), B7-1/2 (ligand for the co-stimulatory molecule CD28) and CD11b (complement receptor 3). Cells were examined by flow cytometry using CellQuest software (commercially available from Decton Dickinson).

[3] = test system: Highly purified T cells stimulated by anti-CD3 mAb; assay: CD3 assay: T-cell proliferation stimulated by immobilized anti-CD3 mAb + PMA (BrdU); format: cell-based, human; conditions: Homo sapiens; 50% reduction in T-cell proliferation; read-out: CD 3 IC50
Method: as §2, §5, §6

SMILES: COc1ccc(-c2cnc3nc(N)nc(N4CCOCC4)c3n2)cc1OC [2-amino-4-morpholino-6-(3,4-dimethoxyphenyl)pteridine]
- inhibition at 0.1 µM (IL-5): 70%
- animals with metastases (inguinal and/or para-aortic lymph nodes) (B16BL/6 melanoma cells): 33%
- inhibition at 0.1 µM (IL-10): 39%

SMILES: CCOc1nc(N)nc2ncc(-c3ccc(OC)c(OC)c3)nc12 [Example 30, 2-amino-6-(3,4-dimethoxyphenyl)-4-ethoxy-pteridine]
- IC50 [1]: 900 nM
- IC50 [2]: 700 nM
- TCR+, CD69+ peripheral blood T cells after ConA (Peripheral blood T cells): 1.6%
- ConA-stimulated CD71 up-regulation on T cells (Peripheral blood T cells): baseline levels
- TCR+, IL-2R+ peripheral blood T cells after ConA (Peripheral blood T cells): 1.5%
- CD134 expression on peripheral blood T cells after ConA (Peripheral blood T cells): 3.5%
- IC50 [3]: 700 nM

SMILES: COc1ccc(-c2cnc3nc(N)nc(OC(C)C)c3n2)cc1OC [Example 45, 2-amino-6-(3,4-dimethoxyphenyl)-4-isopropoxypteridine]
- IC50 [1]: 400 nM
- IC50 [2]: 1700 nM
- TCR+, CD69+ peripheral blood T cells after ConA (Peripheral blood T cells): 2.4%
- ConA-stimulated CD71 up-regulation on T cells (Peripheral blood T cells): baseline levels
- TCR+, IL-2R+ peripheral blood T cells after ConA (Peripheral blood T cells): 1.7%
- CD134 expression on peripheral blood T cells after ConA (Peripheral blood T cells): 4.2%
- IC50 [3]: 6700 nM
